Assays:
[1] = system: HEC-1 (Endometrial Carcinoma); experiment: Bliss excess, mean over the matrix (fraction); higher = more synergy
Procedure, shortened: (§1)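 Cell lines grown in DMEM/F12 or RPMI with 10% FBS were plated in 1536-well plates and held 24 hours at 37°C, 5% CO2 before 72 hours of exposure to two-drug dose matrices, with DMSO typically at 0.2%. CellTiter-Glo 2.0 luminescence gave viability, which was converted to inhibition. Vehicle wells were set to 0 and blank wells to 1. Combination Emax is the second-highest inhibition in the matrix, and Bliss excess is the observed combination effect minus the expected EA + EB − EA·EB, where EA and EB are the single-agent effects.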

[2] = system: NCI-H23 (Lung Adenocarcinoma); experiment: as above
Procedure, shortened: as §1

[3] = system: COLO-680N (Esophageal Squamous Cell Carcinoma); experiment: as above
Procedure, shortened: as §1

A2058 (Melanoma) = experiment: combination Emax (second highest fraction inhibited in the dose matrix, 72 h); higher = more inhibition; extreme values may be limits of the assay
Procedure, shortened: as §1

[4] = system: 23132-87 (Gastric Carcinoma); experiment: as above
Procedure, shortened: as §1

[5] = system: VAL (B-Cell Non-Hodgkin's Lymphoma); experiment: as above
Procedure, shortened: as §1

[6] = system: RERF-LC-Sq1 (Squamous Cell Lung Carcinoma); experiment: as above
Procedure, shortened: as §1

[7] = system: RERF-GC-1B (Gastric Carcinoma); experiment: as above
Procedure, shortened: as §1

[8] = system: REH (B-Lymphoblastic Leukemia); experiment: as above
Procedure, shortened: as §1

[9] = system: L-1236 (Hodgkin's Lymphoma); experiment: as above
Procedure, shortened: as §1

[10] = system: SHP-77 (Small Cell Lung Carcinoma); experiment: as above
Procedure, shortened: as §1

[11] = system: HCT-15 (Colorectal Carcinoma); experiment: as above
Procedure, shortened: as §1

[12] = system: NCI-H446 (Small Cell Lung Carcinoma); experiment: as above
Procedure, shortened: as §1

[13] = system: LXF-289 (Lung Adenocarcinoma); experiment: as above
Procedure, shortened: as §1

[14] = system: MKN45 (Gastric Carcinoma); experiment: as above
Procedure, shortened: as §1

[15] = system: SK-PN-DW (Other Solid Carcinomas); experiment: as above
Procedure, shortened: as §1

[16] = system: PANC-03-27 (Pancreatic Carcinoma); experiment: as above
Procedure, shortened: as §1

LN-229 (Glioblastoma) = experiment: as above
Procedure, shortened: as §1

[17] = system: HSC-39 (Gastric Carcinoma); experiment: as above
Procedure, shortened: as §1

[18] = system: OVMIU (Ovarian Carcinoma); experiment: as above
Procedure, shortened: as §1
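For Bliss excess, mean over the matrix in this document: after 72 h of two-drug dosing.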

NC1(C(=O)N[C@@H](CCO)c2ccc(Cl)cc2)CCN(c2ncnc3[nH]ccc23)CC1 [Capivasertib] + CC(C)n1c(=O)n(C)c2cnc3cc(F)c(-c4ccc(OCCCN5CCCCC5)nc4)cc3c21 [AZD1390] (first compound max 10 µM, 7x7, partner max 0.3 µM)
Bliss excess [1]: -0.0453 | Bliss excess [2]: -0.0484 | Bliss excess [3]: -0.0403 | combination Emax (A2058 (Melanoma)): 0.458 | combination Emax [4]: 0.165 | combination Emax [5]: 0.609 | combination Emax [6]: 0.841 | combination Emax [7]: 0.433 | combination Emax [8]: 0.461 | combination Emax [9]: 0.759 | combination Emax [10]: 0.226 | combination Emax [11]: 0.312 | combination Emax [12]: 0.643 | combination Emax [13]: 0.396 | combination Emax [14]: 0.432 | combination Emax [15]: 0.597 | combination Emax [16]: 0.241 | combination Emax (LN-229 (Glioblastoma)): 0.104 | combination Emax [17]: 0.432 | combination Emax [18]: 0.353

NC1(C(=O)N[C@@H](CCO)c2ccc(Cl)cc2)CCN(c2ncnc3[nH]ccc23)CC1 [Capivasertib] + CCN(CCO)CCCOc1ccc2c(Nc3cc(CC(=O)Nc4cccc(F)c4)[nH]n3)ncnc2c1 [AZD2811] (first compound max 10 µM, 7x7, partner max 1 µM)
Bliss excess [1]: 0.016 | Bliss excess [2]: 0.0232 | Bliss excess [3]: -0.0009 | combination Emax (A2058 (Melanoma)): 0.798 | combination Emax [4]: 0.224 | combination Emax [5]: 0.761 | combination Emax [6]: 0.892 | combination Emax [7]: 0.542 | combination Emax [8]: 0.848 | combination Emax [9]: 0.792 | combination Emax [10]: 0.271 | combination Emax [11]: 0.394 | combination Emax [12]: 0.958 | combination Emax [13]: 0.679 | combination Emax [14]: 0.486 | combination Emax [15]: 0.83 | combination Emax [16]: 0.318 | combination Emax (LN-229 (Glioblastoma)): 0.211 | combination Emax [17]: 0.948 | combination Emax [18]: 0.381

NC1(C(=O)N[C@@H](CCO)c2ccc(Cl)cc2)CCN(c2ncnc3[nH]ccc23)CC1 [Capivasertib] + COc1nnc2ccc(N3CCC(c4ccc(OCCN5CCN(C)C(=O)[C@H]5C)cc4)CC3)nn12 [AZD5153] (first compound max 10 µM, 7x7, partner max 1 µM)
Bliss excess [1]: 0.0143 | Bliss excess [2]: -0.0038 | Bliss excess [3]: 0.0355 | combination Emax (A2058 (Melanoma)): 0.882 | combination Emax [4]: 0.659 | combination Emax [5]: 0.806 | combination Emax [6]: 1 | combination Emax [7]: 0.617 | combination Emax [8]: 0.987 | combination Emax [9]: 1 | combination Emax [10]: 0.607 | combination Emax [11]: 0.717 | combination Emax [12]: 0.97 | combination Emax [13]: 0.811 | combination Emax [14]: 0.58 | combination Emax [15]: 0.74 | combination Emax [16]: 0.307 | combination Emax (LN-229 (Glioblastoma)): 0.344 | combination Emax [17]: 0.916 | combination Emax [18]: 0.665

NC1(C(=O)N[C@@H](CCO)c2ccc(Cl)cc2)CCN(c2ncnc3[nH]ccc23)CC1 [Capivasertib] + C[C@@H]1COCCN1C2=NC(=NC(=C2)C3(CC3)[S@](=N)(=O)C)C4=C5C=CNC5=NC=C4 [AZD6738] (first compound max 10 µM, 7x7, partner max 10 µM)
Bliss excess [1]: -0.0205 | Bliss excess [2]: -0.0434 | Bliss excess [3]: -0.0158 | combination Emax (A2058 (Melanoma)): 0.805 | combination Emax [4]: 0.616 | combination Emax [5]: 0.831 | combination Emax [6]: 0.873 | combination Emax [7]: 0.558 | combination Emax [8]: 0.933 | combination Emax [9]: 0.818 | combination Emax [10]: 0.424 | combination Emax [11]: 0.738 | combination Emax [12]: 0.904 | combination Emax [13]: 0.778 | combination Emax [14]: 0.753 | combination Emax [15]: 0.925 | combination Emax [16]: 0.521 | combination Emax (LN-229 (Glioblastoma)): 0.597 | combination Emax [17]: 1 | combination Emax [18]: 0.62

NC1(C(=O)N[C@@H](CCO)c2ccc(Cl)cc2)CCN(c2ncnc3[nH]ccc23)CC1 [Capivasertib] + Cn1cnc2c(F)c(Nc3ccc(Br)cc3Cl)c(C(=O)NOCCO)cc21 [Selumetinib] (first compound max 10 µM, 7x7, partner max 10 µM)
Bliss excess [1]: 0.0234 | Bliss excess [2]: 0.0101 | Bliss excess [3]: 0.028 | combination Emax (A2058 (Melanoma)): 0.895 | combination Emax [4]: 0.396 | combination Emax [5]: 0.607 | combination Emax [6]: 0.917 | combination Emax [7]: 0.6 | combination Emax [8]: 0.492 | combination Emax [9]: 0.844 | combination Emax [10]: 0.384 | combination Emax [11]: 0.559 | combination Emax [12]: 0.657 | combination Emax [13]: 0.62 | combination Emax [14]: 0.705 | combination Emax [15]: 0.597 | combination Emax [16]: 0.517 | combination Emax (LN-229 (Glioblastoma)): 0.484 | combination Emax [17]: 0.852 | combination Emax [18]: 0.585

Cc1nc(Nc2ncc(C(=O)Nc3c(C)cccc3Cl)s2)cc(N2CCN(CCO)CC2)n1 [Dasatinib] + CC(=O)Nc1cccc(-n2c(=O)n(C3CC3)c(=O)c3c(Nc4ccc(I)cc4F)n(C)c(=O)c(C)c32)c1 [Trametinib] (first compound max 2 µM, 7x7, partner max 1 µM)
Bliss excess [1]: 0.0095 | Bliss excess [2]: 0.0225 | Bliss excess [3]: 0.0389 | combination Emax (A2058 (Melanoma)): 0.644 | combination Emax [4]: 0.315 | combination Emax [5]: 0.691 | combination Emax [6]: 0.562 | combination Emax [7]: 1 | combination Emax [8]: 0.089 | combination Emax [9]: 0.243 | combination Emax [10]: 0.172 | combination Emax [11]: 0.71 | combination Emax [12]: 0.444 | combination Emax [13]: 0.986 | combination Emax [14]: 0.79 | combination Emax [15]: 0.141 | combination Emax [16]: 0.713 | combination Emax (LN-229 (Glioblastoma)): 0.548 | combination Emax [17]: 0.498 | combination Emax [18]: 0.798

COc1cccc2c1C(=O)c1c(O)c3c(c(O)c1C2=O)C[C@@](O)(C(=O)CO)C[C@@H]3O[C@H]1C[C@H](N)[C@H](O)[C@H](C)O1 [Doxorubicin] + Cc1cc2ncnn2cc1Nc1ncc2c(n1)n(C1CCOCC1)c(=O)n2C [AZD7648] (first compound max 1 µM, 7x7, partner max 10 µM)
Bliss excess [1]: 0.004 | Bliss excess [2]: 0.0413 | Bliss excess [3]: 0.0063 | combination Emax (A2058 (Melanoma)): 0.583 | combination Emax [4]: 0.82 | combination Emax [5]: 1 | combination Emax [6]: 0.627 | combination Emax [7]: 0.779 | combination Emax [8]: 1 | combination Emax [9]: 0.682 | combination Emax [10]: 0.562 | combination Emax [11]: 0.742 | combination Emax [12]: 0.923 | combination Emax [13]: 0.4 | combination Emax [14]: 0.821 | combination Emax [15]: 0.814 | combination Emax [16]: 0.686 | combination Emax (LN-229 (Glioblastoma)): 0.609 | combination Emax [17]: 0.867 | combination Emax [18]: 0.861

Reference: the supplement of paper PMC11061612
